Data on twelve molecules can be found in patent publication US20190060239A1, “Technology for the Preparation of Microparticles” (Ansun Biopharma, Inc., priority 2007, published 2019).

The nature of data set [1]: Microsphere quality score by light microscopy (scoring system of Table 13). The class given is physicochemical. The note with it: for microsphere formation: control. As for the experimental part:
For each of the compounds listed in A-D above, and for DAS181, cocktail solutions containing 2 mg/ml of compound dissolved in an aqueous solvent and various counterions, antisolvents and pH, as listed below, were prepared in a 96-well microtiter plate (0.1 ml cocktail/well) at room temperature. Control solutions contained either solvent or antisolvent alone, with or without the counterion. Cocktails were cooled by placing in a freezer. The chilled plates were transferred onto pre-chilled (−45° C.) shelves of a Millrock Lab Series Lyophilizer, and the vacuum was applied. The frozen cocktail solutions were allowed to lyophilize for 16 hours.
The lyophilized powders from the bottoms of the wells were transferred onto glass slides and analyzed by light microscopy for appearance. The quality of the product microspheres was scored based on the uniformity of the microspheres, the absence of undesirable non-microsphere particles (glass-like crystalline forms), and the absence of aggregates.
Arginine was used as counterion and isopropanol was used as antisolvent. Concentrations of each of the cocktail components—the compound, the counterion and the antisolvent—were varied as shown below in Table 15, and the effect on microsphere quality assessed.
Experiments were performed to evaluate the effect of antisolvent and counterion concentration variation on the formation of microspheres. The peptides leuprolide and somatostatin, and the antibiotics vancomycin and tobramycin, were tested under a variety of conditions for forming microspheres. Samples were analyzed in 96-well plates as described in the previous Examples.
The experiments were performed using PGI2 and an analog of PGI2, Ciprostene, at a concentration of 2 mg/ml. Cocktail solutions were mixed at room temperature, then cooled by placing in a freezer. The chilled plates were transferred onto pre-chilled (−45° C.) shelves of a Millrock Lab Series Lyophilizer, and the vacuum was applied. The frozen cocktail solutions were allowed to lyophilize for 16 hours.
Because the resulting prostaglandin microspheres are hygroscopic, upon microsphere initiation, the humidity was maintained at low levels during the experiments, using a nitrogen gas tank attached to the backfill system on the lyophilizer. Each of the reaction tubes was flushed with N2. In addition, the backfill valve on the lyophilizer was left open to continually flush a low humidity atmosphere over the samples. The microscope used to visualize the resulting microspheres was contained within a plastic bag that was continually purged with dry N2. Sample tubes were placed under the bag to equilibrate for approximately 30 seconds, before opening and spreading onto the glass slide.
The compound/counterion/antisolvent conditions were as follows:
Experiments were performed with 200 μl of each of the above cocktail solutions in a 2 ml lyophilization bottle (first flash freeze condition), and 25 μl of each of the above cocktail solutions in a PCR tube (second flash freeze condition). The samples in the lyophilization bottles took approximately 15 seconds to freeze. The samples in the PCR tubes took approximately 3 seconds or less to freeze.
The cocktails in the 96-well plates were cooled by placing in a freezer. The chilled plates were transferred onto pre-chilled (−45° C.) shelves of a Millrock Lab Series Lyophilizer, and a vacuum was applied. The frozen cocktail solutions were allowed to lyophilize for 16 hours.
The lyophilized powders from the bottoms of the wells were transferred onto glass slides and analyzed by light microscopy for appearance.

The nature of data set [2]: Microsphere formation, size and appearance by light microscopy. To be noted: 5 mg/ml protein. The data set is classed as physicochemical.

Consider `CC1(C)S[C@@H]2[C@H](NC(=O)[C@H](N)c3ccccc3)C(=O)N2[C@H]1C(=O)O` [Ampicillin], for which the “Microsphere Quality” value in data set [1] (2 mg/ml compound, 2 mM Na-Citrate, 5% n-propanol, pH 5.0) is reported as 3/4; in data set [1] (2 mg/ml compound, 2 mM Na-Glutamate, 5% n-propanol, pH 4.0), 3-5.

Take `CCCCC[C@H](O)/C=C/[C@@H]1[C@H]2C/C(=C/CCCC(=O)O)O[C@H]2C[C@H]1O` [Prostaglandin I2]: the “Microsphere Quality” value in data set [1] (compound 2 mg/ml, 2 mM Arginine, pH 9, 20% n-propanol, 5% t-butanol) is given as 7/8; in data set [1] (compound 2 mg/ml, 2 mM Arginine, pH 9, 20% n-propanol, 55% t-butanol), 5/6; in data set [1] (compound 2 mg/ml, 2 mM TEA, pH 11, 20% n-propanol, 5% t-butanol), 7/8; in data set [1] (compound 2 mg/ml, 2 mM TEA, pH 11, 30% n-propanol, 0% t-butanol) it was 2/3.

For the molecule `NC[C@H]1O[C@H](O[C@H]2[C@H](O)[C@@H](O[C@H]3O[C@H](CO)[C@@H](O)[C@H](N)[C@H]3O)[C@H](N)C[C@@H]2N)[C@H](N)C[C@@H]1O` [Tobramycin], the “Microsphere Quality” value in data set [1] (compound 2 mg/ml, Itaconic acid-Na, pH 4.0 2 mM, Isopropanol 0%) is given as 4/5; in data set [1] (compound 2 mg/ml, Itaconic acid-Na, pH 4.0 2 mM, Isopropanol 5%), 7/8; in data set [1] (compound 2 mg/ml, Itaconic acid-Na, pH 4.0 2 mM, Isopropanol 30%) it was 8/9; in data set [1] (compound 2 mg/ml, Itaconic acid-Na, pH 4.0 2 mM, Isopropanol 40%), 6/7; in data set [1] (compound 2 mg/ml, Itaconic acid-Na, pH 4.0 2 mM, Isopropanol […]) it was 7/8; in data set [1] (compound 2 mg/ml, Itaconic acid-Na, pH 4.0 5 mM, Isopropanol 5%) it was “Crystals”. Besides, the “Microsphere Quality” value in data set [1] (compound 2 mg/ml, Itaconic acid-Na, pH 4.0 10 mM, Isopropanol 5%) is on record as “Crystals”; in data set [1] (compound 2 mg/ml, Itaconic acid-Na, pH 4.0 15 mM, Isopropanol 5%), “Crystals”; in data set [1] (compound 2 mg/ml, Itaconic acid-Na, pH 4.0 17 mM, Isopropanol 5%), “Crystals”; in data set [1] (pH 4) it was “Crystals”.

Regarding `C=C(CC(=O)O)C(=O)O` [itaconic acid], the microsphere formation result in data set [1] (no added compound: 2 mM itaconic acid buffered to pH 7, 5% isopropanol) is given as “hygroscopic microspheres”; in data set [1] (no added compound: 2 mM itaconic acid buffered with sodium hydroxide at pH 4, 15% isopropanol), “microspheres were formed”.

In the case of `CCNC(=O)[C@@H]1CCCN1C(=O)[C@H](CCCNC(=N)N)NC(=O)[C@H](CC(C)C)NC(=O)[C@@H](CC(C)C)NC(=O)[C@H](Cc1ccc(O)cc1)NC(=O)[C@H](CO)NC(=O)[C@H](Cc1c[nH]c2ccccc12)NC(=O)[C@H](Cc1c[nH]cn1)NC(=O)[C@@H]1CCC(=O)N1` [leuprolide], the “Microsphere Quality” value in data set [1] (2 mM Na-citrate, 15% isopropanol, pH 4.0) is on record as 5/6.

For Green fluorescent protein, the “Microsphere Size (microns)” value in data set [2] (5 mM pivalic acid, pH 7.0, 10% 1-propanol) is 0.5-1.5 microns.

Consider Hemoglobin, for which the “Microsphere Size (microns)” value in data set [2] (5 mM glycine, pH 5.0, 10% isopropanol) was 0.4-0.7 microns.

On to Lysozyme: purchased from Sigma, for which, in data set [2] (5 mM citrate, pH 8.0, 5% isopropanol), the “Microsphere Size (microns)” value is reported as 4-5 microns.

B1: PIN 168 (PI8): hexahistidine-tagged human proteinase inhibitor 8 (SEQ ID NO:15) (protein, listed as Homo sapiens)
chain: MDDLCEANGTFAISLFKILGEEDNSRNVFFSPMSISSALAMVFMGAKGSTAAQMSQALCLYKDGDIHRGFQSLLSEVNRTGTQYLLRTANRLFGEKTCDFLPDFKEYCQKFYQAELEELSFAEDTEECRKHINDWVAEKTEGKISEVLDAGTVDPLTKLVLVNAIYFKGKWNEQFDRKYTRGMLFKTNEEKKTVQMMFKEAKFKMGYADEVHTQVLELPYVEEELSMVILLPDDNTDLAVVEKALTYEKFKAWTNSEKLTKSKVQVFLPRLKLEESYDLEPFLRRLGMIDAFDEAKADFSGMSTEKNVPLSKVAHKCFVEVNEEGTEAAAATAVVRNSRCSRMEPRFCADHPFLFFIRRHKTNCILFCGRFSSP
modifications: hexahistidine tag; protease inhibitor 8 (PI8) (Serpin B8)
Turning to B1, the “Microsphere Size (microns)” value in data set [2] (5 mM citrate, pH 5.0, 7% isopropanol) was 2-5 microns.

B2: RNase A: purchased from Sigma (protein, UniProt P61823 27-150, looked up)
Ribonuclease pancreatic: KETAAAKFERQHMDSSTSAASSSNYCNQMMKSRNLTKDRCKPVNTFVHESLADVQAVCSQKNVACKNGQTNCYQSYSTMSITDCRETGSSKYPNCAYKTTQANKHIIVACEGNPYVPVHFDASV
Turning to B2, the “Microsphere Size (microns)” value in data set [2] (5 mM citrate, pH 4.0, 5% isopropanol) is 0.4-1 microns.

B3: Trypsin: purchased from Worthington (protein, UniProt P00760 24-246, looked up)
Serine protease 1: IVGGYTCGANTVPYQVSLNSGYHFCGGSLINSQWVVSAAHCYKSGIQVRLGEDNINVVEGNEQFISASKSIVHPSYNSNTLNNDIMLIKLKSAASLNSRVASISLPTSCASAGTQCLISGWGNTKSSGTSYPDVLKCLKAPILSDSSCKSAYPGQITSNMFCAGYLEGGKDSCQGDSGGPVVCSGKLQGIVSWGSGCAQKNKPGVYTKVCNYVSWIKQTIASN
Regarding B3, the “Microsphere Size (microns)” value in data set [2] (5 mM arginine, pH 8.0, 5% isopropanol) is 0.5-1 microns.

B4: Ovalbumin: purchased from Sigma (protein, UniProt P01012 2-386, looked up)
Ovalbumin: GSIGAASMEFCFDVFKELKVHHANENIFYCPIAIMSALAMVYLGAKDSTRTQINKVVRFDKLPGFGDSIEAQCGTSVNVHSSLRDILNQITKPNDVYSFSLASRLYAEERYPILPEYLQCVKELYRGGLEPINFQTAADQARELINSWVESQTNGIIRNVLQPSSVDSQTAMVLVNAIVFKGLWEKAFKDEDTQAMPFRVTEQESKPVQMMYQIGLFRVASMASEKMKILELPFASGTMSMLVLLPDEVSGLEQLESIINFEKLTEWTSSNVMEERKIKVYLPRMKMEEKYNLTSVLMAMGITDVFSSSANLSGISSAESLKISQAVHAAHAEINEAGREVVGSAEAGVDAASVSEEFRADHPFLFCIKHIATNAVLFFGRCVSP
On to B4, for which, in data set [2] (5 mM pivalic acid, pH 4.0, 10% isopropanol), the “Microsphere Size (microns)” value is 0.5-1 microns.
